Assay results from patent US20250375454A1, “METHODS FOR TREATING HEPATOCELLULAR CARCINOMA” (THE HONG KONG POLYTECHNIC UNIVERSITY, priority 2024, published 2025).
Entries after “also recorded” stand apart in the source; their conditions may differ.

Experiments:
Huh7 cells = experiment: MTT cytotoxicity assay, Huh7; format: cell-based; conditions: for cytotoxicity (cell viability): Huh7, ZAK-I-57 24 h, ZAK-I-64 and ZAK-I-68 48 h
Experimental: (§1) Huh7 and PLC/PRF/5 (CRL-8024™) cells were purchased from Thermo Fisher Scientific and the ATCC, respectively. MIHA was kindly provided by Dr. J. R. Chowdhury, Albert Einstein College of Medicine, New York. The cell lines were cultured in Dulbecco's modified Eagle medium (DMEM, Gibco, MA, USA) supplemented with 10% fetal bovine serum (FBS, BI, MA, USA) and 1× penicillin-streptomycin solution (Solarbio) at 37° C. in a humid, 5% CO2 atmosphere.
(§2) Huh7 and PLC/PRF/5 cells at a density of 5×10^3 cells/well were cultured in 96-well plates and incubated at 37° C. in 5% CO2. Both cell lines were treated with different concentrations of benzoxazinone derivatives (ZAK-I-57, ZAK-I-64, and ZAK-I-68). Both cell lines were incubated with ZAK-I-57 for 24 h and for 48 h with ZAK-I-64 and ZAK-I-68. MTT (3-[4,5-dimethylthiazol-2-yl]-2,5-diphenyltetrazolium bromide) solution was then added to each well and incubated for 3 h in a CO2 atmosphere at 37° C. Insoluble formazan crystals were dissolved by adding 100 μL of dimethyl sulfoxide (DMSO) to each well, followed by orbital agitation for 10 min. A minimum of three biological replicates were analyzed using a plate reader to determine IC50. The same experiment was performed with MIHA hepatocyte cells to evaluate the selectivity cytotoxicity of ZAK-I-57.

PLC/PRF/5 cells = experiment: MTT cytotoxicity assay, PLC/PRF/5; format: cell-based; conditions: for cytotoxicity (cell viability): PLC/PRF/5, ZAK-I-57 24 h, ZAK-I-64 and ZAK-I-68 48 h
Experimental: as §1, §2

[1] = MTT cytotoxicity assay, MIHA normal hepatocytes; format: cell-based; conditions: human, MIHA normal hepatocyte cells, all concentrations, read-out: cell viability
Experimental: as §1, §2

MIHA cells = experiment: MTT cytotoxicity assay, MIHA normal hepatocytes; format: cell-based; conditions: Hepatocyte
Experimental: as §1, §2

EGFR = experiment: Western blot of EGFR expression in Huh7 cells; format: cell-based
Experimental: (§3) The Huh7 cells and tumor tissues were lysed on ice using the lysis buffer. Protein concentration was quantified using Bradford assay (Bio-Rad, Hercules, CA, USA). Equivalent amounts of protein (25-50 μg) were loaded onto 10% sodium dodecyl sulfate-polyacrylamide gel electrophoresis (SDS-PAGE) and transferred to polyvinylidene fluoride (PVDF) membranes. Membranes were blocked with 5% non-fat milk in Tris-buffered saline Tween 20 (TBST) for an hour. The blots were incubated with primary antibodies (EGFR (4267S, Cell signaling technology, MA, USA), c-Myc (5605S, Cell signaling technology, MA, USA), Bax (2772S, Cell signaling technology, MA, USA), Bcl-2 (sc-7382, Santa Cruze, TX, USA), ERBB2 (2165S, Cell signaling technology, MA, USA), and α-tubulin (62204, Invitrogen, MA, USA), 1:1000) at 4° C. overnight. Subsequently, the membranes were washed thrice (15 min each) with TBST solution and incubated for 1 h with secondary horseradish peroxidase-conjugated antibodies (NA934 and NA931, Cytiva, MA, USA, 1:5000). Blots were then detected using an ECL kit and photographed using a ChemiDoc Imaging System (Bio-Rad, MA, USA). The bands were quantified using the ImageJ software (NIH, USA). The intensities of the bands for each protein sample were normalized to those of α-tubulin (internal standard protein). Quantitative data are presented as a fold change of untreated control.

c-Myc = experiment: Western blot of c-Myc expression in Huh7 cells; format: cell-based
Experimental: as §3

ERBB2 = experiment: Western blot of ERBB2 expression in Huh7 cells; format: cell-based
Experimental: as §3

[2] = system: PLC/PRF/5 tumor-bearing mice; experiment: PLC/PRF/5 tumor-bearing mouse model; format: in vivo; conditions: for tumor cellularity (H&E staining) / gross anatomical examination of vital organs / histopathology of vital organs (H&E) / body weight: sorafenib 30 mg/kg; for tumor cellularity (H&E staining): vs vehicle control; for gross anatomical examination of vital organs / histopathology of vital organs (H&E): heart, liver, spleen, lung, kidney; for body weight: oral gavage daily, 20 days
Experimental: (§4) Male BALB/c nude mice (6-8 weeks old) were obtained from the Centralized Animal Facilities at the Hong Kong Polytechnic University. All animals were bred and housed under specific pathogen-free conditions, with access to sterile food and water. Environmental conditions were strictly controlled, with temperature maintained at 23±2° C., relative humidity between 30%-70%, and a 12-hour light/dark cycle. Mice were group-housed in accordance with institutional guidelines for recommended stocking density. The animal experiments were conducted according to institutional guidelines, and the experimental procedures were approved by the PolyU Animal Experimentation Ethics Committee (Ref. No. 19-20/57-ABCT-R-STUDENT).
PLC/PRF/5 cells (5×10^5) were suspended in 100 μL PBS with Matrigel (1:1 ratio) and injected into the right back of nude mice. Small tumors (<70 mm^3) were formed two weeks after cell inoculation. Mice were then randomized into the vehicle control group, ZAK-I-57 treated groups (15 mg/kg and 30 mg/kg), or sorafenib (30 mg/kg) groups. Mice were administered 200 μL of vehicle water and drugs by oral gavage daily for three weeks. Tumor size was measured twice a week, and tumor volumes were calculated using the formula [(length×width×depth)/2 mm^3] while each mouse was weighed. At the end of the experiment, the mice were sacrificed, and the tumors and organs were collected for further experiments.
as §3
(§5) Tumors were fixed in 4% formalin, embedded in paraffin, and sectioned at […] thickness for IHC staining. Ki-67 primary antibody (ab16667, Abcam, MA, USA) and anti-mouse IgG recombinant secondary antibody (7056S, Cell Signaling Technology, MA, USA) were used for IHC staining. Hemotoxin (Invitrogen, MA, USA) was used to stain nuclei. The number of positively stained cells in Ki-67-stained slides was evaluated using ImageJ software (NIH, MD, USA).
(§6) H&E staining was performed on histological sections of organs (heart, spleen, kidney, liver, and lung) to examine the toxicity of ZAK-I-57 in PLC/PRF/5 tumor-bearing and PDTX model mice. Briefly, the histological slides were deparaffinized using 100% xylene (v/v). The slides were then washed several times with ethanol solutions of various concentrations (70-100%, v/v) and immersed in hematoxylin for 5 min, followed by a quick dip in acidic alcohol. Next, the slides were immersed in Scott's tap water for 3 min and in 1% eosin for 30 s. Finally, the slides were dehydrated using ethanol solutions of various concentrations (70%-100%, v/v) and 100% xylene (v/v) and mounted using a mounting medium.

HCC PDTX mouse model = experiment: HCC patient-derived tumor xenograft (PDTX #1) mouse model; format: in vivo, mice; conditions: for body weight / tumor cellularity (H&E staining) / gross anatomical examination of vital organs / histopathology of vital organs (H&E): ZAK-I-57 15 and 30 mg/kg, sorafenib 30 mg/kg; for gross anatomical examination of vital organs / histopathology of vital organs (H&E): heart, liver, spleen, lung, kidney
Experimental: as §4
The procedure for the establishment of PDTX #1 was previously described. Tumor cells from PDTX #1 was inoculated subcutaneously on the back of nude mice. When the tumors reached approximately 1,000 mm^3, mice with the first generation of xenografts (P1) were sacrificed, and the xenografts were isolated and expanded for the second generation (P2). When P2 xenografts reached an average volume of 70 mm^3, mice were subjected to ZAK-I-57 and sorafenib treatment. The development of PDTX was approved by the Institutional Review Board of the University of Hong Kong/Hospital Authority Hong Kong West Cluster (UW 17-056) and informed consents were obtained from patients.
as §3, §5, §6

[3] = ZAK-I-57 15 and 30 mg/kg, vs vehicle control and sorafenib 30 mg/kg

O=c1oc(-c2ccc3ccccc3c2)nc2cc([N+](=O)[O-])ccc12 [ZAK-I-57, 2-(naphthalen-2-yl)-7-nitro-4H-3,1-benzoxazin-4-one]
IC50 against HCC cells, compared with sorafenib and artesunate (Huh7 cells; HCC cells (Huh7)): lower than sorafenib and artesunate
cytotoxicity (cell viability) (Huh7 cells): concentration-dependent increase in cytotoxicity
IC50 against HCC cells, compared with sorafenib and artesunate (PLC/PRF/5 cells; HCC cells (PLC/PRF/5)): lower than sorafenib and artesunate
cytotoxicity (cell viability) (PLC/PRF/5 cells): concentration-dependent increase in cytotoxicity
viability at 24 h ([1]; 24 h): > 90%
viability at 48 h ([1]; 48 h): > 90%
IC50 (MIHA cells; 24 h): > 100 µM
IC50 (MIHA cells; 48 h): > 100 µM
IC50 (MIHA cells; time not stated): > 100 µM
EGFR expression (EGFR; Huh7, 48 h treatment): significant downregulation
c-Myc expression (c-Myc; Huh7, 48 h treatment): significant downregulation
ERBB2 expression (ERBB2; Huh7, 48 h treatment): significant downregulation
Ki-67 suppression compared with sorafenib ([2]; 30 mg/kg): significantly greater Ki-67 suppression than sorafenib
tumor cell density and necrosis (H&E staining) ([2]; 30 mg/kg): substantial decrease in cell density and necrosis
tumor volume reduction compared with sorafenib ([2]; 30 mg/kg): outperforming sorafenib
tumor weight reduction compared with sorafenib ([2]; 30 mg/kg): outperforming sorafenib
Bax expression in tumor (western blot) ([2]; 30 mg/kg, vs control): increase in the expression
Bcl-2 expression in tumor (western blot) ([2]; 30 mg/kg, vs control): significantly attenuated
EGFR expression in tumor (western blot) ([2]; 30 mg/kg, vs control): significantly attenuated
c-Myc expression in tumor (western blot) ([2]; 30 mg/kg, vs control): significantly attenuated
Ki-67 expression in tumor (IHC) ([2]; 15 and 30 mg/kg): inhibition of Ki-67 expression
tumor growth inhibition ([2]; 15 and 30 mg/kg): significantly inhibited tumor growth
tumor cellularity (H&E staining) ([2]; ZAK-I-57 15 and 30 mg/kg): marked reduction in tumor cellularity
tumor volume [2, 3]: marked reduction
tumor weight [2, 3]: marked reduction
gross anatomical examination of vital organs ([2]; ZAK-I-57 15 and 30 mg/kg): maintained tissue morphology comparable to the vehicle control
histopathology of vital organs (H&E) ([2]; ZAK-I-57 15 and 30 mg/kg): no histological abnormalities were observed
body weight ([2]; ZAK-I-57 15 and 30 mg/kg): no significant changes
percentage of tumor growth (HCC PDTX mouse model; 15 mg/kg and 30 mg/kg, vs vehicle control): markedly diminished
Bax expression in tumor (western blot) (HCC PDTX mouse model; 30 mg/kg): significantly upregulating
Bcl-2 expression in tumor (western blot) (HCC PDTX mouse model; 30 mg/kg): downregulating
EGFR expression in tumor (western blot) (HCC PDTX mouse model; 30 mg/kg): downregulated
Ki-67 suppression compared with sorafenib (HCC PDTX mouse model; 30 mg/kg): significantly greater Ki-67 suppression than sorafenib
c-Myc expression in tumor (western blot) (HCC PDTX mouse model; 30 mg/kg): downregulated
tumor cell density and necrosis (H&E staining) (HCC PDTX mouse model; 30 mg/kg): substantial decrease in cell density and necrosis
tumor volume reduction compared with sorafenib (HCC PDTX mouse model; 30 mg/kg): outperforming sorafenib
tumor weight (HCC PDTX mouse model; 30 mg/kg): significant reduction; also recorded: outperforming sorafenib
Ki-67 expression in tumor (IHC) (HCC PDTX mouse model; 15 and 30 mg/kg): inhibition of Ki-67 expression
tumor progression (tumor volume) (HCC PDTX mouse model; 15 and 30 mg/kg): significantly inhibited tumor progression in a dose-dependent manner
body weight (HCC PDTX mouse model): no significant difference
tumor cellularity (H&E staining) (HCC PDTX mouse model; vs vehicle control): marked reduction in tumor cellularity
gross anatomical examination of vital organs (HCC PDTX mouse model): maintained tissue morphology comparable to the vehicle control
histopathology of vital organs (H&E) (HCC PDTX mouse model): no histological abnormalities were observed

CNC(=O)c1cc(Oc2ccc(NC(=O)Nc3ccc(Cl)c(C(F)(F)F)c3)cc2)ccn1 [sorafenib, reference compound]
tumor cellularity (H&E staining) ([2]; ZAK-I-57 15 and 30 mg/kg): marked reduction in tumor cellularity
gross anatomical examination of vital organs ([2]; ZAK-I-57 15 and 30 mg/kg): maintained tissue morphology comparable to the vehicle control
histopathology of vital organs (H&E) ([2]; ZAK-I-57 15 and 30 mg/kg): absence of significant pathological changes
body weight ([2]; ZAK-I-57 15 and 30 mg/kg): only slight variation
body weight (HCC PDTX mouse model): Slight variations
tumor cellularity (H&E staining) (HCC PDTX mouse model; vs vehicle control): marked reduction in tumor cellularity
gross anatomical examination of vital organs (HCC PDTX mouse model): maintained tissue morphology comparable to the vehicle control
histopathology of vital organs (H&E) (HCC PDTX mouse model): absence of significant pathological changes

Cc1ccccc1-c1nc2cc([N+](=O)[O-])ccc2c(=O)o1 [ZAK-I-64, 2-(2-methylphenyl)-7-nitro-4H-3,1-benzoxazin-4-one]
cytotoxicity (cell viability) (Huh7 cells): concentration-dependent increase in cytotoxicity
cytotoxicity (cell viability) (PLC/PRF/5 cells): concentration-dependent increase in cytotoxicity
EGFR expression (EGFR; Huh7, 48 h treatment): no appreciable effect
EGFR expression (EGFR; Huh7, 72 h treatment): significant downregulation
c-Myc expression (c-Myc; Huh7, 48 h treatment): no appreciable effect
c-Myc expression (c-Myc; Huh7, 72 h treatment): significant downregulation
ERBB2 expression (ERBB2; Huh7, 48 h treatment): no appreciable effect
ERBB2 expression (ERBB2; Huh7, 72 h treatment): significant downregulation

O=c1oc(-c2ccc(O)cc2)nc2cc([N+](=O)[O-])ccc12 [ZAK-I-68, 2-(4-hydroxyphenyl)-7-nitro-4H-3,1-benzoxazin-4-one]
cytotoxicity (cell viability) (Huh7 cells): concentration-dependent increase in cytotoxicity
cytotoxicity (cell viability) (PLC/PRF/5 cells): concentration-dependent increase in cytotoxicity
EGFR expression (EGFR; Huh7, 48 h treatment): no appreciable effect
EGFR expression (EGFR; Huh7, 72 h treatment): significant downregulation
c-Myc expression (c-Myc; Huh7, 48 h treatment): no appreciable effect
c-Myc expression (c-Myc; Huh7, 72 h treatment): significant downregulation
ERBB2 expression (ERBB2; Huh7, 48 h treatment): no appreciable effect
ERBB2 expression (ERBB2; Huh7, 72 h treatment): significant downregulation
